The values that follow are results of earlier work, collected in paper PMC12751000, “Dual Agonist/Antagonist Modulation of α9-Containing Nicotinic Acetylcholine Receptors by 2‑Ammoniumethyl Ethers of Stilbenol and Stilbenol Analogues” (Journal of Medicinal Chemistry, 2025).

This data set addresses α7[L247T] mutant receptor. The arrangement: method as in previous findings, citation number not given. To be noted: chick α7[L247T] mutant; ref: previous findings, citation number not given; cited from earlier work.

Usually EC50 stands for the concentration at which the effect is half-maximal. As to `CC[N+](CC)(CC)CCOc1ccc(/C=C/c2ccccc2)cc1` [Compound 1, 2-triethylammonium ethyl ether of 4-stilbenol], the EC50 was 0.2 nM.
